In PMC7179167 (Molecules, 2020):
Values after ≈ are worked out from the molar mass of the structure shown. Where two headings read alike, the source gives them in different places.

Legend:
[1] = system: B. subtilis (ATCC 6633); assay: Disk diffusion antimicrobial test, B. subtilis; format: cell-based, Bacillus subtilis; details: 20 mg per disc (title), concentration 20 µg (footnote); for zone of inhibition at 20 µg/disc: Bacillus subtilis, ATCC6633, Gram-positive
Description: (§1) The newly synthesized compounds were chosen to be evaluated in vitro towards a variety of pathogenic microorganisms; Gram-positive bacteria: S. aureus (ATCC 6538) and B. subtilis (ATCC 6633); Gram-negative bacteria: P. areuginosa (ATCC 27853) and E. coli (DSMZ 1058); yeast: C. albicans (ATCC 10231) and S. cerevisiae (ATCC 9080) and fungi: A. niger (NRRL A-326) using the disk diffusion method at a single dose of 20 µl. The results are shown in Table 1 as the growth inhibition zone (mm).
(§2) The antimicrobial activity of target compounds were evaluated to be in vitro against a variety of pathogenic microorganisms, namely Staphylococcus aureus (ATCC 6538), Bacillus subtilis (ATCC 6633) (Gram-positive bacteria), Pseudomonas areuginosa (ATCC 27853), Escherichia coli (DSMZ 1058) (Gram-negative bacteria), Candida albicans (ATCC 10231), Saccharomyces cerevisiae (ATCC 9080) (Yeast) and Aspergillus niger (NRRL A-326) (Fungi) using the disk diffusion method at a single dose of 20 µg. The microorganisms were served and obtained from the Microbial Biotechnology Department, National Research Center, Giza, Egypt. Amphotericin, amoxicillin and ciprofloxacin were used as reference drugs (Oxoid™ Disks). The tested compounds 11a–c, 12a–c, 13a–i, 14a–i and 15a,b were dissolved in dimethylsulphoxide (DMSO) at a concentration of 1 mg/mL. Aliquots of 20 μl were soaked on filter paper discs (6 mm) and dried at room temperature under sterilized conditions. The paper discs were placed on inoculated agar plats and then incubated for 24 h at 37 °C for bacterial strains and after 48–72 h incubation at 30 °C for fungi. Both bacterial and yeast strains were grown on nutrient agar medium (g/l): beef extract, 3; peptone, 10 and agar, 20 at pH of 7.2. The fungal strain was grown on Czapek-Dox medium (g/l): sucrose, 30; NaNO3, 3; MgSO4.7H2O, 0.5l; KCl, 0.5; FeSO4, 0.01; K2HPO4, 1 and agar, 20 at pH of 6.0.

[2] = system: S. aureus (ATCC 6538); assay: Disk diffusion antimicrobial test, S. aureus; format: cell-based, Staphylococcus aureus; details: 20 mg per disc (title), concentration 20 µg (footnote); for zone of inhibition at 20 µg/disc: Staphylococcus aureus, ATCC6538, Gram-positive
Description: as §1, §2

[3] = system: C. albicans (ATCC 10231); assay: Disk diffusion antimicrobial test, C. albicans; format: cell-based, Candida albicans; details: yeast, 20 mg per disc (title), concentration 20 µg (footnote); for zone of inhibition at 20 µg/disc: Candida albicans, ATCC10231, disk diffusion
Description: as §1, §2

[4] = DPPH free radical scavenging assay; format: biochemical; details: concentration of 20µg/l, mean ± SD of three experiments
Description: Antioxidant activity of the newly synthesized 13a–i, 14a–i, 11a–c and 12a–c were assessed in terms of hydrogen-donating or radical-scavenging ability via the stable free radical 1,1-diphenyl-2-picrylhydrazyl (DPPH) using ascorbic acid as a reference at a concentration of […].
The free radical scavenging activity (RSA) was assessed spectrophotometically at 517 nm via decoloration of the solution of the DPPH (1,1-diphenyl-2-picrylhydrazyl) radical according to Brand-Williams et al. 1995 [32]. DPPH solution was prepared by dissolving of 20 mg of DPPH in one liter of dimethylsulphoxide (DMSO). A freshly prepared DPPH solution was used for the assay. Each of the tested compounds 11a–c, 12a–c, 13a–i, 14a–i and 15a,b were dissolved in DMSO (1mg/mL). A volume of […] of a DMSO stock solution of the test compounds was added to 2 mL of freshly prepared DPPH in DMSO solution. The mixtures were shaken in a vortex (2500 rpm) for 1 min and then left to stand for 15, 30, 45 and 60 min in the dark room. The absorbance was measured at 517 nm against blank using UV visible spectrophotometer 2401 PC (Shimadzu, Kyoto, Japan). Lower absorbance of the reaction mixture indicated higher free radical scavenging activity was analyzed from the graph plots of the inhibition percentage against the compound concentration. The experiment was carried out in triplicate and averaged. The scavenging activity was calculated according to the following formula:Scavenging ability (%) = (A517 of control - A517of sample / A 517 of control) ×100(1)

[5] = system: P. aeruginosa (ATCC 27853); assay: Disk diffusion antimicrobial test, P. aeruginosa; format: cell-based, Pseudomonas areuginosa; details: Pseudomonas aeruginosa, ATCC27853, Gram-negative, 20 mg per disc (title), concentration 20 µg (footnote)
Description: as §1, §2

[6] = system: S. cerevisiae (ATCC 9080); assay: Disk diffusion antimicrobial test, S. cerevisiae; format: cell-based; details: Saccharomyces cerevisiae, ATCC9080, yeast, 20 mg per disc (title), concentration 20 µg (footnote)
Description: as §1, §2

[7] = system: HCT-116 (human colon cancer); assay: MTT cytotoxicity assay, HCT-116; format: cell-based; details: Homo sapiens; for inhibition at 100 µg/mL: HCT-116, 100 µg/ml, 48 h, read-out: Growth Inhibition (%) HCT-116; for IC50: HCT-116, 48 h, 48 h post-treatment
Description: (§3) MCF-7 (human breast cancer), HCT-116 (human colon cancer) and HepG2 (human liver cancer) cell lines were obtained from Karolinska Institute, Stockholm, Sweden. All cells were maintained in RPMI 1640 medium. The media were supplemented with 10% heat-inactivated fetal bovine serum plus 1% antibiotic-antimycoticmixture (10,000 U/mL of potassium penicillin, 10,000 μg/mL of streptomycin sulfate, 25 μg/mL of amphotericin B and 1% of L glutamine (Biowest, USA)). BJ-1 of a human skin fibroblast derived from normal foreskin was obtained from ATCC® CRL-2522™ as a frozen ampoule with about 1 × 10^6 cells per 1 ml volume. BJ-1 was maintained in MEM with 2 mM of L-glutamine and Earle’s salts medium.
(§4) Cell viability was studied using the MTT 3-(4,5-dimethylthiazol-2-yl)-2,5-diphenyl-tetrazolium bromide (Bio Basic Canada Inc. Toronto, Canada) assay [33]. The steps were executed in a sterile laminar air flow cabinet biosafety class II level (Baker, SG403INT; Sanford, ME, USA). All incubations were carried out at 37 °C in a 5% CO2 incubator under a humidified atmosphere of 95% (Sheldon, TC2323; Cornelius, OR, USA). Cells were seeded into 96-well microtiter plastic plates at a concentration of (10^4 cells/well) and allowed to adhere for 24 h. The medium was aspirated and then added to the cells with the test compounds 11a–c, 12a–c, 13a–i, 14a–i and 15a,b at a single dose of 100 μg/mL in DMSO. After incubation of the medium for 48 h, 40 μL of MTT salt (2.5 μg/mL) was added to each well and then incubated for an additional 4 h. To stop the reaction and dissolve any formed formazan crystals, 200 μL of 10% sodium dodecyl sulfate (SDS) were added to each well and incubated overnight at 37 °C. The amount of formazan product was measured at 595 nm with a reference wavelength of 690 nm as a background using a microplate reader (Bio-Rad Laboratories, model 3350, California, USA). For the untreated cells (negative control), the medium was added instead of the tested compounds. […] Dimethylsulfoxide (DMSO) was the vehicle used for dissolution of the testing compound, and its final concentration on the cells was less than 0.2%. At the same dilution, the solvent concentration was the same for all drugs and between the control and drug treatments.

[8] = system: normal skin fibroblast cells (BJ-1); assay: MTT cytotoxicity assay, normal skin fibroblast BJ-1; format: cell-based; details: Homo sapiens, 48 h, read-out: Growth Inhibition (%) BJ-1
Description: as §3, §4

[9] = system: MCF-7 (human breast cancer); assay: MTT cytotoxicity assay, MCF-7; format: cell-based; details: for inhibition at 100 µg/mL: MCF7, 100 µg/ml, 48 h, read-out: Growth Inhibition (%) MCF-7; for IC50: MCF7, 48 h post-treatment
[10] = system: HepG-2 (human liver cancer); assay: MTT cytotoxicity assay, HepG-2; format: cell-based; details: for inhibition at 100 µg/mL: HepG2, 100 µg/ml, 48 h, read-out: Growth Inhibition (%) HepG-2; for IC50: HepG2, 48 h post-treatment
Description: as §3, §4

[11] = 15 min, read-out: Scavenging Activity (%) on DPPH radicals at 15 min
[12] = 30 min, read-out: Scavenging Activity (%) on DPPH radicals at 30 min
[13] = 45 min, read-out: Scavenging Activity (%) on DPPH radicals at 45 min
[14] = 60 min, read-out: Scavenging Activity (%) on DPPH radicals at 60 min

Row | Molecule | Inhibition Zone (mm), B. subtilis (ATCC 6633) ([1]; Gram-positive) | Inhibition Zone (mm), S. aureus (ATCC 6538) ([2]; Gram-positive) | Inhibition Zone (mm), C. albicans (ATCC 10231) ([3]; disk diffusion) | inhibition [4, 11] | inhibition [4, 12] | inhibition [4, 13] | inhibition [4, 14] | zone of inhibition at 20 µg/disc [1] | zone of inhibition at 20 µg/disc [2] | zone of inhibition at 20 µg/disc [3] | melting point | zone of inhibition at 20 µg/disc [5] | zone of inhibition at 20 µg/disc [6] | inhibition at 100 µg/mL [7] | inhibition at 100 µg/mL [8] | inhibition at 100 µg/mL [9] | inhibition at 100 µg/mL [10] | IC50 [10] | IC50 [7] | IC50 [9]
1 | 3-(6-Hydroxy-4,6-dimethoxybenzofuran-5-yl)quinoline-4-carboxylic acid [Compound 15b] | 10 mm | 8 mm | 8 mm | 23.6 ± 1.36% | 32.7 ± 1.13% | 39.2 ± 1.29% | 47.5% | – | – | – | – | – | – | – | – | – | – | – | – | –
2 | CC1(C)S[C@@H]2[C@H](NC(=O)[C@H](N)c3ccc(O)cc3)C(=O)N2[C@H]1C(=O)O [Amoxicillin, amoxicillin, reference compound] | – | – | – | – | – | – | – | 28.4 mm | 25.6 mm | – | – | – | – | – | – | – | – | – | – | –
3 | CCOc1cc2occc2c(OC)c1C1=NNC2(C1)C(=O)Nc1ccccc12 (stereo not shown) [Compound 11c, 5’-(6-Ethoxy-4-methoxy-benzofuran-5-yl)-2’,4’-dihydrospiro(indoline-3,3’-pyrazol)-2-one] | – | – | – | 40.6 ± 1.28% | 40.6 ± 1.81% | 40.6 ± 1.67% | 40.6 ± 1.35% | 10 mm | – | 25 mm | 137 to 139 °C | 10 mm | 25 mm | 30.2% | 45.2% | 0% | – | – | – | –
4 | CCOc1c(C2=NNC3(C2)C(=O)Nc2ccccc23)c(OC)c2ccoc2c1OC (stereo not shown) [Compound 12c, 5’-(6-Ethoxy-4,7-dimethoxy-benzofuran-5-yl)-2’,4’-dihydrospiro(indoline-3,3’-pyrazol)-2-one] | – | – | – | 9.76 ± 1.76% | 10.2 ± 1.26% | 11.4 ± 1.53% | 14 ± 1.55% | 18 mm | 10 mm | 10 mm | – | 20 mm | 10 mm | 12.4% | 62.3% | 6.3% | – | – | – | –
5 | O=C1Nc2ccccc2C12CC(c1c[nH]c3ccccc13)=NN2 (stereo not shown) [Compound 13a, 5’-(1H-Indol-3-yl)-2’,4’-dihydrospiro(indoline-3,3’-pyrazol)-2-one] | – | – | – | 41.1 ± 1.25% | 45.8 ± 1.36% | 56.5 ± 1.99% | 64.1 ± 2.01% | – | – | 18 mm | 318 to 320 °C | – | 20 mm | 96.9% | 11.6% | 96.4% | 89.3% | 60.6 µg/mL (≈ 200 µM) | 31.3 µg/mL (≈ 104 µM) | 32.4 µg/mL (≈ 107 µM)
6 | CCn1cc(C2=NNC3(C2)C(=O)Nc2ccccc23)c2ccccc21 (stereo not shown) [Compound 13b, 5’-(N-Ethyl-1H-indol-3-yl)-2’,4’-dihydrospiro(indoline-3,3’-pyrazol)-2-one] | – | – | – | 43.5 ± 1.98% | 47 ± 1.81% | 56.3 ± 1.29% | 65.5 ± 1.55% | – | – | 18 mm | 143 to 145 °C | – | 18 mm | 94.5% | 10.4% | 95.4% | 81.4% | 48 µg/mL (≈ 145 µM) | 21.3 µg/mL (≈ 64.5 µM) | 24 µg/mL (≈ 72.6 µM)
7 | O=C1Nc2ccccc2C12CC(c1cn(S(=O)(=O)c3ccc(Br)cc3)c3ccccc13)=NN2 (stereo not shown) [Compound 13g, 5’-(N-(4-Bromo-benzenesulfonyl)-1H-indol-3-yl)-2’,4’-dihydrospiro(indoline-3,3’-pyrazol)-2-one] | – | – | – | 25.9 ± 1.85% | 44 ± 1.46% | 49.2 ± 1.77% | 53.7 ± 1.81% | – | – | – | 190 to 192 °C | – | – | 92.4% | 13% | 91.6% | 81.9% | 72.2 µg/mL (≈ 138 µM) | 35.3 µg/mL (≈ 67.7 µM) | 43 µg/mL (≈ 82.5 µM)
8 | O=C1Nc2ccccc2C12CC(c1cn(S(=O)(=O)c3ccc(Cl)cc3)c3ccccc13)=NN2 (stereo not shown) [Compound 13h, 5’-(N-(4-Chloro-benzensulfonyl)-1H-indol-3-yl)-2’,4’-dihydrospiro(indoline-3,3’-pyrazol)-2-one] | – | – | – | 15.2 ± 1.98% | 16.3 ± 1.96% | 20.6 ± 1.48% | 35.7 ± 1.91% | – | – | – | 197 to 199 °C | – | – | 91.3% | 14.1% | 93.4% | 79.5% | 19.2 µg/mL (≈ 40.3 µM) | 20.5 µg/mL (≈ 43 µM) | 5.8 µg/mL (≈ 12.2 µM)
